# In patent US20150307549A1, “AGENT FOR PREVENTING ARTERIOSCLEROSIS, AGENT FOR SUPPRESSING VASCULAR INTIMAL THICKENING AND AGENT FOR IMPROVING VASCULAR ENDOTHELIAL FUNCTION” (CALPIS Co., LTD, priority 2006, published 2015):
# Tests used:
# [1] = test system: thoracic aorta ring of Wistar rats; assay: Endothelium-dependent vasodilator response of thoracic aorta ring of L-NAME-treated rats (Magnus apparatus); assay type: in vivo, rat; settings: for Degree of vasodilation compared to the group given only L-NAME (in words): given together with L-NAME in drinking water for one week
# Experimental: Wistar rats (7 weeks of age, male) as the test animals were acclimatized for one week. A nitric oxide synthesis inhibitor, NG-nitro-L-arginine methyl ester hydrochloride (L-NAME, manufactured by SIGMA-ALDRICH CORP.) was dissolved in drinking water at the concentration of 1 g/L, and similarly, L-NAME and Val-Pro-Pro synthesized above at 1 g/L and 0.3 g/L, respectively, and L-NAME and Ile-Pro-Pro synthesized above at 1 g/L and 0.3 g/L, respectively. The rats were allowed free access to the prepared drinking water for one week. As a control, only the drinking water without L-NAME dissolved therein was given to a non-treatment group.
# Then, the rats were subjected to fatal exsanguination under diethyl ether anesthesia. The thoracic aorta was taken out, cut into 2 mm long, and made into an aorta ring. The ring was set in a Magnus apparatus (product name “micro tissue organ bath MTOB-1Z”, manufactured by LABO SUPPORT CO., LTD.) filled with 5 ml of Tyrode's solution (composition: 158.3 mM of NaCl, 4.0 mM of KCl, 2.0 mM of CaCl2, 1.05 mM of MaCl2, 0.42 mM of NaH2PO4, 10.0 mM of NaHCO3, and 5.6 mM of glucose; pH 7.4, 37±0.5° C.), and allowed to equilibrate with the resting tension of 2.0 g. The aorta ring was then allowed to constrict with 1 μM of phenylephrine
# The degree of vasodilation by the response was determined as a ratio to the constriction with 1 μM of phenylephrine. In the Table, each value is an average of each group of 8 animals.
# In the Table, each value is an average of each group of 9 animals.
# [2] = test system: arteriosclerosis; settings: administration; Non-patent Publication 5; cited from earlier work
# [3] = test system: ApoE knockout mice; assay: Confirmatory test for effect of inhibiting vascular intimal thickening (Elastica-van Gieson stain, intima/media area ratio); assay type: in vivo, mouse; settings: 31 weeks; for Inhibition of vascular intimal thickening (in words): Example 2-2, Feeds 1 to 6 versus control; for Degree of Intimal Thickening: intima/media area ratio
# Experimental: ApoE knockout mice (6 weeks of age, male, 8 animals for each group) were allowed free access to Feeds 1 to 7 as shown in Table 6 for 31 weeks. Then the thoracic aorta of the mice was taken out, fixed in 10% neutral buffered formalin, and subjected to the Elastica-van Gieson stain. Micrographs of the tissue specimens were scanned into the computer, and the degree of vascular intimal thickening (intima/media area ratio (%)) was calculated using an image processing software (Image J). The values of the degree of thickening shown in the table are the averages of each group.
# The confirmatory test for the effect of inhibiting vascular intimal thickening was conducted on each of the solid feeds thus produced in the same way as in Example 2-2, and the degree of intimal thickening (intimal/media area ratio (%)) was calculated. The values of the degree of intimal thickening in the table are the averages of each group.
compound,measurement,setting,value
"COC(=O)[C@@H](N)CCCN=C(N)N[N+](=O)[O-].Cl [L-NAME, NG-nitro-L-arginine methyl ester hydrochloride, reference compound]",Degree of vasodilation,"[1]; 10 μM acetylcholine, ratio to constriction with 1 μM phenylephrine, drinking water one week: L-NAME 1 g/L, peptide 0.3 g/L, enalapril 0.5 mg/L",26.1%
"CCOC(=O)[C@H](CCc1ccccc1)N[C@@H](C)C(=O)N1CCC[C@H]1C(=O)O [enalapril, reference compound]",Degree of vasodilation compared to the group given only L-NAME (in words),[1],no significant difference
same,Arteriosclerosis inhibitory effect,[2],does not result in an arteriosclerosis inhibitory effect
Val-Pro-Pro,Degree of vasodilation compared to the group given only L-NAME (in words),[1],significantly higher
same,Inhibition of vascular intimal thickening (in words),[3],inhibited vascular intimal thickening concentration-dependently
same,Degree of Intimal Thickening,[3]; Feed 1: 0.0034 wt % in feed (Val-Pro-Pro 34.1 mg/kg feed),21.8%
same,Degree of Intimal Thickening,[3]; Feed 2: 0.0340 wt % in feed (Val-Pro-Pro 341.0 mg/kg feed),18.7%
Ile-Pro-Pro,Degree of vasodilation compared to the group given only L-NAME (in words),[1],significantly higher
same,Inhibition of vascular intimal thickening (in words),[3],inhibited vascular intimal thickening concentration-dependently
same,Degree of Intimal Thickening,[3]; Feed 3: 0.0017 wt % in feed (Ile-Pro-Pro 17.1 mg/kg feed),25.3%
same,Degree of Intimal Thickening,[3]; Feed 4: 0.0170 wt % in feed (Ile-Pro-Pro 171.0 mg/kg feed),20.5%
